The text below walks through data of patent US8841233B2, “Herbicidal compositions comprising 4-amino-3-chloro-5-fluoro-6-(4-chloro-2-fluoro-3-methoxyphenyl) pyridine-2-carboxylic acid or a derivative thereof and 4-hydroxyphenyl-pyruvate dioxygenase (HPPD) inhibitors” (Dow Agrosciences LLC, priority 2012, dated 2014).

In assay [1] the test system is LEFCH. Put plainly: Post-emergence foliar-applied weed control, greenhouse (Example I). It counts as in vivo, Leptochloa chinensis (L.) Nees. The source says: Evaluation of Post-emergence Foliar-Applied Herbicidal Mixtures for Weed Control in Direct Seeded Rice
Seeds or nutlets of the desired test plant species were planted in a soil matrix prepared by mixing a loam or sandy loam soil (e.g., 28.6 percent silt, 18.8 percent clay, and 52.6 percent sand, with a pH of about 5.8 and an organic matter content of about 1.8 percent) and calcareous grit in an 80 to 20 ratio. The soil matrix was contained in plastic pots with a volume of 1 quart and a surface area of 83.6 square centimeters (cm^2). When required to ensure good germination and healthy plants, a fungicide treatment and/or other chemical or physical treatment was applied. The plants were grown for 8-22 days in a greenhouse with an approximate 14 h photoperiod which was maintained at about 29° C. during the day and 26° C. during the night. Nutrients (Peters Excel® 15-5-15 5-Ca 2-Mg and iron chelate) were applied in the irrigation solution as needed and water was added on a regular basis. Supplemental lighting was provided with overhead metal halide 1000-Watt lamps as necessary. The plants were employed for testing when they reached the first through fourth true leaf stage. […]
(§1) Treatment requirements were calculated based upon the rates being tested, the concentration of active ingredient or acid equivalent in the formulation, and a 12 mL application volume at a rate of 187 L/ha.
For treatments comprised of formulated compounds, measured amounts of compounds were placed individually in 25 mL glass vials and diluted in a volume of 1.25% (v/v) Agri-Dex® crop oil concentrated to obtain 12× stock solutions. […]
For treatments comprised of formulated and technical compounds, weighed amounts of the technical materials were placed individually in 25 mL glass vials and dissolved in a volume of 97:3 v/v acetone/DMSO to obtain 12× stock solutions, and measured amounts of the formulated compounds were placed individually in 25 mL glass vials and diluted in a volume of 1.5% (v/v) crop oil concentrate or water to obtain 12× stock solutions. […]

The test system of assay [2] is SETVI. Put plainly: Pre-emergence soil-applied weed control, greenhouse (Example III). It counts as in vivo, Setaria viridis (L.) Beauv.
Description: (§2) Evaluation of Pre-emergence Soil-Applied Herbicidal Mixtures for Weed Control
(§3) Seeds or nutlets of the desired test plant species were planted in a soil matrix prepared by mixing a loam soil (32 percent silt, 23 percent clay, and 45 percent sand, with a pH of about 6.5 and an organic matter content of about 1.9 percent) and calcareous grit in an 80 to 20 ratio. The soil matrix was contained in plastic pots with a volume of 1 quart and a surface area of 83.6 square centimeters (cm^2).
(§4) Treatments consisted of the benzyl ester of 4-amino-3-chloro-5-fluoro-6-(4-chloro-2-fluoro-3-methoxy-phenyl)pyridine-2-carboxylic acid (compound A) formulated as an SC (suspension concentrate) and various herbicidal components alone and in combination. Forms of compound A were applied on an acid equivalent basis.
(§5) Other herbicidal components were applied on an acid equivalent or active ingredient basis and included the 4-hydroxyphenyl pyruvate dioxygenase (HPPD)-inhibiting herbicide, isoxaflutole, formulated as Balance Pro®.
as §1
(§6) For treatments comprised of formulated compounds, measured amounts of compounds were placed individually in 25 mL glass vials and diluted in a volume of 1.25% (v/v) Agri-Dex® crop oil concentrate (COC) to obtain 12× stock solutions. […] Application solutions were prepared by adding an appropriate amount of each stock solution (e.g., 1 mL) and diluted to the appropriate final concentrations with the addition of 10 mL of an aqueous mixture of 1.25% (v/v) COC so that the final spray solutions contained 1.25% (v/v) COC.
(§7) All stock solutions and applications solutions were visually inspected for compound compatibility prior to application. Spray solutions were applied to the soil with an overhead Mandel track sprayer equipped with a 8002E nozzles calibrated to deliver 187 L/ha over an application area of 0.503 m^2 at a spray height of 18 inches (46 cm) above average pot height. Control pots were sprayed in the same manner with the solvent blank.
(§8) The treated and control pots were placed in a greenhouse and top watered as needed. When required to ensure good germination and healthy plants, a fungicide treatment and/or other chemical or physical treatment was applied. […] After approximately 4 weeks, the condition of the test plants as compared with that of the untreated plants was determined visually and scored on a scale of 0 to 100 percent where 0 corresponds to no injury or growth inhibition and 100 corresponds to complete kill. […]

Assay [3] concerns XANST. The description is as above. It is filed as in vivo, Xanthium strumarium L.
Description: as §2, §3, §4, §5, §1, §6, §7, §8

For the compound `COc1c(Cl)ccc(-c2nc(C(=O)O)c(Cl)c(N)c2F)c1F` [Compound A Acid, 4-amino-3-chloro-6-(4-chloro-2-fluoro-3-methoxyphenyl)-5-fluoropyridine-2-carboxylic acid], the “Visual Weed Control (%) - 21 DAA LEFCH Obs” value is given as 10% in assay [1] (17.5 gae/ha) and 60% in assay [1] (35 gae/ha).

Consider `COc1c(Cl)ccc(-c2nc(C(=O)OCc3ccccc3)c(Cl)c(N)c2F)c1F` [Compound A Benzyl Ester, benzyl ester of 4-amino-3-chloro-5-fluoro-6-(4-chloro-2-fluoro-3-methoxy-phenyl)pyridine-2-carboxylic acid], for which the “Visual Weed Control (%) - 32 DAA SETVI Obs” value in assay [2] (16 gae/ha) stood at 0%; in assay [2] (32 gae/ha) it was 13%. The “Visual Weed Control (%) - 32 DAA XANST Obs” value turned out to be 33% in assay [3] (8 gae/ha), 35% in assay [3] (16 gae/ha) and 65% in assay [3] (32 gae/ha).
